Experimental data reported in patent US20240051936A1, “ISOINDOLINONE COMPOUNDS” (Monte Rosa Therapeutics, Inc., priority 2021, published 2024).
Where two headings read alike, the source gives them in different places.

Key:
[1] = target: Full length wild-type cereblon CRBN (Homo sapiens (Human), UniProt Q96SW2); assay: Fluorescence polarization (FP) assay, cereblon binding
Procedure, shortened: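 Full-length wild-type CRBN (80.0 nM) preincubated 30 min RT with compound (300–0.937 or 3000–9.3 nM, 12 points) in 20 mM HEPES pH 8.0, 150 NaCl, 0.5 mM TCEP, 0.05% Tween 20. Probe added at 5 nM final; FP read after 12 h (ex 590/em 675 nm), normalized to DMSO for IC50.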

GSPT1 = GSPT1 (Homo sapiens (Human), UniProt P15170+Q96SW2); assay: Immunofluorescence assay for GSPT1 degradation in CAL-Si cells; format: cell-based
Chain of GSPT1 (P15170 whole entry): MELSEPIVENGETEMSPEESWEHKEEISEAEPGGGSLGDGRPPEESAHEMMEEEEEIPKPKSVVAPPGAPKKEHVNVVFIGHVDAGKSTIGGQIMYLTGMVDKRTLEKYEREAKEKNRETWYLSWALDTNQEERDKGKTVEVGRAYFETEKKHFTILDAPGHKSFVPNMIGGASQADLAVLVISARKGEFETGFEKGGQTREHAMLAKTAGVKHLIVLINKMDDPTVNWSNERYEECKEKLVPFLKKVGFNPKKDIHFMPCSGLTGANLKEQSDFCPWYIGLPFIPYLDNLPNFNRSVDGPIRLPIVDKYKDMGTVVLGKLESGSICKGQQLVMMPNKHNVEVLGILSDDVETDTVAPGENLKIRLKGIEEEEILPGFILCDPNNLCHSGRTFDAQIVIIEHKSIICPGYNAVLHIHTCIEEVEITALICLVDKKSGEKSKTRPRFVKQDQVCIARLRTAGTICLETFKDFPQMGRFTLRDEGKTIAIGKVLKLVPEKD
Chain of GSPT1 (Q96SW2 whole entry): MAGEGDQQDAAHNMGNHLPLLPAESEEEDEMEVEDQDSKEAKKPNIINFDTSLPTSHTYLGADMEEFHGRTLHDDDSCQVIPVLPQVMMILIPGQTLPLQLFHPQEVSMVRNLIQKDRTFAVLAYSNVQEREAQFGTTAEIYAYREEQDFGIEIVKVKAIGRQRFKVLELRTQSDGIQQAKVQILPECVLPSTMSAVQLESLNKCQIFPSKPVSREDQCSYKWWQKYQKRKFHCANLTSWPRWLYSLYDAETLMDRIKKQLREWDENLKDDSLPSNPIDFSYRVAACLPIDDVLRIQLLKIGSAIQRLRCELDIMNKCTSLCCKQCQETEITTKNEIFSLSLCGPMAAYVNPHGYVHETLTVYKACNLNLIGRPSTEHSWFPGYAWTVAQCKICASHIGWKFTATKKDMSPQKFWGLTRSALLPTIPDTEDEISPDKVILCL
Chain of GSPT1 (Q16531 whole entry partner): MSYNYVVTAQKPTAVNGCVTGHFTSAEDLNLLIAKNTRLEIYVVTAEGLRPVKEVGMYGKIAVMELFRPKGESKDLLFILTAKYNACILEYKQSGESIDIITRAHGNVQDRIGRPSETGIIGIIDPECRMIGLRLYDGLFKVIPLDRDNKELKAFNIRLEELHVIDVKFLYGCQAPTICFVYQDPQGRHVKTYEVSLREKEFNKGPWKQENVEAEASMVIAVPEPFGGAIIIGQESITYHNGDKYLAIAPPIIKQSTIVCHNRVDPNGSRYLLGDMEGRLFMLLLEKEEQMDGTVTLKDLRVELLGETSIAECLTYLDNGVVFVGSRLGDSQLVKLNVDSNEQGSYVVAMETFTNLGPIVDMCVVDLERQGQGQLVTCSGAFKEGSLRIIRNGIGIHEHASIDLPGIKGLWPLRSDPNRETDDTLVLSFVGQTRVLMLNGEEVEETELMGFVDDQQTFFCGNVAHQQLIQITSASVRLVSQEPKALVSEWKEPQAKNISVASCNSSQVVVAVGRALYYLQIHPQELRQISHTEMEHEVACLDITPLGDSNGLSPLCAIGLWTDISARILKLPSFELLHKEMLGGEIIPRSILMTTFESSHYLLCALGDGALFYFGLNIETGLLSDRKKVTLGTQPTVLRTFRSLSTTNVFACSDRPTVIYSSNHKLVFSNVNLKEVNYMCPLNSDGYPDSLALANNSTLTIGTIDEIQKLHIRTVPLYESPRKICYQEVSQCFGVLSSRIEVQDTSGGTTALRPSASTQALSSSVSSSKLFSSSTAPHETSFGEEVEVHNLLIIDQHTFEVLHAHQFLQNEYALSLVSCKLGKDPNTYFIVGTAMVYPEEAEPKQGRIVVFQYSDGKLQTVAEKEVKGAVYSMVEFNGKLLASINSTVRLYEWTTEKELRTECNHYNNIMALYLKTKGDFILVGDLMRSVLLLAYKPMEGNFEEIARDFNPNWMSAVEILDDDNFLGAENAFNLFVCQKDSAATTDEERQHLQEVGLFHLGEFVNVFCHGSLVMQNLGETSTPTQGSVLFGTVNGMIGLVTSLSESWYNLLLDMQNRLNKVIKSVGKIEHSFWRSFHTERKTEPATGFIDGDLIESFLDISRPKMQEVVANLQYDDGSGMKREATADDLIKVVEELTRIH
Procedure, shortened: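 CAL-Si cells on fibronectin were treated for 6 h with serial dilutions (30 μM to 0.1 nM). After fixation, GSPT1 was immunostained and imaged by high-content analysis, with DAPI/actin cell segmentation giving mean GSPT1 intensity per cell. DC50 came from nonlinear regression after normalization to controls.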

CRBN = CRBN (Homo sapiens (Human), UniProt Q96SW2); assay: HTRF binding of compounds to CRBN; details: read-out: HTRF Class (HTRF IC50, Cereblon binding)
Chain of CRBN (Q96SW2 whole entry, species assumed): as the sequence (Q96SW2 whole entry) above

[2] = wild-type CRBN 80.0 nM, probe 5 nM, FP measured after 12 hours, read-out: rFP IC50
[3] = CAL-Si cells, compounds with code A, read-out: DC50 value code
[4] = CAL-Si cells, treated 6 hours, read-out: Code, activity for GSPT1 degradation (DC50)
[5] = Table 4, read-out: IF Class (ability for GSPT1 degradation)

Chain of Full length wild-type cereblon CRBN (Q96SW2 whole entry): as above

SMILES | IC50 ([1]; cereblon binding, bound, read-out: IC50 value) [nM] | IC50 [1, 2] [nM] | DC50 (GSPT1; [3]) [nM] | DC50 (GSPT1; [4]) [nM] | IC50 (CRBN) [nM] | DC50 (GSPT1; [5]) [nM]
COc1cc(COC(=O)Nc2ccc(-c3ccccc3C)nc2)cc2c1CN(C1CCC(=O)NC1=O)C2=O (stereo not drawn) [Compound 60, (2-(2,6-dioxopiperidin-3-yl)-7-methoxy-3-oxoisoindolin-5-yl)methyl (6-(o-tolyl)pyridin-3-yl)carbamate] | < 600 | ≤ 600 | < 30 | < 30 |  | 
Cc1ccc(NC(=O)OCc2ccc3c(c2F)C(=O)N(C2CCC(=O)NC2=O)C3)cc1Cl (stereo not drawn) [Compound 71, (2-(2,6-dioxopiperidin-3-yl)-4-fluoro-3-oxoisoindolin-5-yl)methyl(3-chloro-4-methylphenyl)carbamate] |  | > 1900 | < 30 | < 30 | 100 to 1000 | 
Cc1ccc(NC(=O)OCc2ccc3c(c2Cl)C(=O)N(C2CCC(=O)NC2=O)C3)cc1Cl (stereo not drawn) [Compound 72, (4-chloro-2-(2,6-dioxopiperidin-3-yl)-3-oxoisoindolin-5-yl)methyl(3-chloro-4-methylphenyl) carbamate] |  |  |  |  | > 1000 | > 300
CC1(c2ccc(NC(=O)OCc3cc(F)c4c(c3)C(=O)N(C3CCC(=O)NC3=O)C4)cn2)CC1 (stereo not drawn) [Compound 75, (2-(2,6-dioxopiperidin-3-yl)-7-fluoro-3-oxoisoindolin-5-yl)methyl(6-(1-methylcyclopropyl)pyridin-3-yl)carbamate] |  |  |  |  | 100 to 1000 | < 30
